Data reported in patent US20170290886A1, “TREATMENT OF NEURODEVELOPMENTAL DISORDERS” (Academia Sinica, priority 2016, published 2017).
Where no end group is shown, it is not given here.

How the values were obtained:
Assay type in all cases: in vivo, rat
MeCP2 SUMOylation = test: In vitro SUMOylation assay for CA1 tissue
Experimental: Hippocampal CA1 tissue lysate was prepared in the same way as that prepared for western blot. For immunoprecipitating the MeCP2, the clarified lysate (0.5 mg) was immunoprecipitated with 3 μl of anti-MeCP2 antibody (Catalog No. 3456, Cell Signaling) at […] overnight. The protein A agarose beads ([…], 50% slurry, GE Healthcare, Barrington, Ill.) were added to the IP reaction product to catch the immune complex at […] for 3 h. The immune complex on beads were washed three times with washing buffer containing 20 mM HEPES (pH 7.4), 150 mM NaCl, 1 mM EDTA, 1% IGEPAL CA-630, 1 mM DTT, 50 mM β-glycerophosphate, 50 mM NaF, […] PMSF, […] and subject to in vitro SUMOylation reaction with the addition of recombinant PIAS1 protein (3 μl, Catalog No. BML-UW9960, Enzo Life
Sciences, Farmingdale, N.Y.), E1(1 μl), E2 (1 μl) and the SUMO1 (0.5 μl) proteins provided in the kit. In vitro SUMOylation assay was performed using the SUMO linkTM kit according to the manufacturer's instructions (Active Motif, Carlsbad, Calif.) and boiled in Laemmli sample buffer at 95° C. for 10 min. The in vitro SUMOylation product was subject to 8% SDS-PAGE followed by transferring onto the PVDF membrane (Millipore). The membrane was immunoblotted with anti-MeCP2 antibody (1:1000, Catalog No. 3456, Cell Signaling) or anti-SUMO1 antibody (1:4000, Catalog No. 40120, Active Motif). For determination of endogenous MeCP2 SUMOylation after PIAS1 siRNA transfection, no E1, E2, SUMO1 and PIAS1 proteins were added to the IP reaction product. The remaining procedures were the same as that for carrying out the in vitro SUMOylation assay.
Rats were anesthetized with pentobarbital (40 mg/kg) and subject to stereotaxic surgery. Two 23-gauge, stainless-steel, thin-wall cannulae were implanted bilaterally to the CA1 area of rat brain at the following coordinates: 3.5 mm posterior to the bregma, ±2.5 mm lateral to the midline and 3.4 mm ventral to the skull surface. After recovery from the surgery, NMDA (2 μg/μl), IGF-1 (100 ng/ml), CRF (100 ng/μl) and dexamethasone (30 ng/μl) were directly injected to the CA1 area at a rate of 0.1 μl/min. A total of 0.7 μl was injected to each side. For transient Mecp2 plasmid DNA transfection, 0.7 μg/μl plasmid DNA complex ([…]) was injected directly to CA1 area bilaterally in the rat brain using the non-viral transfection agent polyethyleneimine (PEI). Before injection, plasmid DNA was diluted in 5% glucose to a stock concentration of 2.77 μg/μl. Branched PEI of 25 kDa (Sigma, St. Louis, Mo.) was diluted to 0.1 M concentration in 5% glucose and added to the DNA solution. Immediately before injection, 0.1 M PEI was added to reach a ratio of PEI nitrogen per DNA phosphate equals to 10. […]

[1] = system: MeCP2 phosphorylation at Ser-421; test: MeCP2 phosphorylation at Ser-421 in CA1 area (western blot); conditions: 1 hr
Experimental: (§1) The E3 SUMO-protein ligase PIAS1, MeCP2, Flag, V5 and Myc, the clarified lysate (0.5 mg) was immunoprecipitated by mixed with 0.5 μl of anti-PIAS1 antibody (Catalog No. 2474-1, Epitomics, Burlingame, Calif.), 2 μl of anti-MeCP2 antibody (Catalog No. 3456, Cell Signaling, Danvers, Mass.), 2 μl of anti-Flag M2 antibody (Catalog No. F1804, Sigma-Aldrich, St. Louis, Mo.), 1 μl of anti-VS antibody (Catalog No. MCA2895, AbD Serotec, Kidlington, UK) and 2 μl of anti-Myc antibody (Catalog No. 05-419, Millipore, Bedford, Mass.) at 4° C., and allowed the mixture to react overnight. Twenty microliter of rabbit or mouse IgG was used in the control group. The protein A or G magnetic beads ([…], 50% slurry, GE Healthcare, Barrington, IL) were added to the IP reaction product to catch the immune complex at 4° C. for 3 h. The immune complex on beads were washed three times with washing buffer containing 20 mM HEPES (pH 7.4), 150 mM NaCl, 1 mM EDTA, 1% IGEPAL CA-630, 1 mM DTT, 50 mM β-glycerophosphate, 50 mM NaF, 10 mg/ml PMSF, 4 µg/ml aprotinin, 4 μg/ml leupeptin and 4 μg/ml pepstatin, and then subject to 8% SDS-PAGE followed by transferring onto the Nitrocellulose (NC) membrane (GE Healthcare). […] The protein bands were quantified by using the NIH Image J Software. […]

PIAS1 = PIAS1 expression in CA1 area (western blot); conditions: siRNA 8 pmol; FIG. 2h lower panel
Experimental: as §1

CN[C@H](CC(=O)O)C(=O)O [NMDA, N-methyl-D-aspartate]
level of MeCP2 SUMOylation (MeCP2 SUMOylation; NMDA 2 μg/μl injected to CA1 area, 1 hr, vs Flag-vector + PBS, FIG. 3b): increased the level of MeCP2 SUMOylation | phosphorylation level of MeCP2 at Ser-421 ([1]; NMDA 2 μg/μl injected to CA1 area, FIG. 3b): increased the phosphorylation level of MeCP2 at Ser-421

CRF: Corticotropin-releasing factor, purchased from Sigma-Aldrich (SEEPPISLDLTFHLLREVLEMARAEQLAQQAHSNRKLMEII; ends and bridges not checked; UniProt P06850 154-194, looked up)
level of MeCP2 SUMOylation (MeCP2 SUMOylation; CRF injected to CA1 area, 1 hr later, vs PBS, FIG. 3d): markedly increased the level of MeCP2 SUMOylation

IGF-1: Insulin-like growth factor-1, purchased from Sigma-Aldrich
level of MeCP2 SUMOylation (MeCP2 SUMOylation; IGF-1 100 ng/ml injected to CA1 area, 1 hr later, vs PBS, FIG. 3c): significantly increased the level of MeCP2 SUMOylation | phosphorylation level of MeCP2 at Ser-421 ([1]; IGF-1 100 ng/ml injected to CA1 area, FIG. 3c): increased the phosphorylation level of MeCP2 at Ser-421

PIAS1 siRNA: siRNA against PIAS1, SEQ ID NO: 18 and 19 (chain 1 UCCGGAUCAUUCUAGAGCUTT; chain 2 AGCUCUAGAAUGAUCCGGATT; chemistry not given here)
level of endogenous MeCP2 SUMOylation (MeCP2 SUMOylation; siRNA 8 pmol to CA1 area, 48 hrs later, vs control siRNA, FIG. 2g, 2h): significantly decrease the level of endogenous MeCP2 SUMOylation | PIAS1 expression in CA1 area (PIAS1): decreased PIAS1 expression
